Results published in article PMC7311426, “An amphipathic peptide with antibiotic activity against multidrug-resistant Gram-negative bacteria” (Nature Communications, 2020).
In brackets after ≈: the same amount, converted by molar mass. Read-outs that look alike come from different tables or passages of the source. Marks after values point to notes of the source that are not given here.

What was measured:
Test in all cases: microbe, parasite or virus in culture
[1] = test system: S. enterica Typhi
Outline: (§1)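 MICs were scored by eye after 18-20 h static incubation at 37 °C, with bacteria at 5 × 10^5 CFU mL^−1 in MHB. Peptides were serially diluted 2-fold over 12 points, top 128 or 64 μg mL^−1. CAMHB (CLSI) and 1% agarose-MHB variants were also run, at least six replicates.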

[2] = test system: K. pneumoniae; details: for MIC: Klebsiella pneumoniae
Outline: as §1

[3] = test system: P. aeruginosa; details: mode of 6 replicates; for MIC: Pseudomonas aeruginosa
Outline: as §1

[4] = test system: E. coli; details: for MIC: Escherichia coli
Outline: as §1

[5] = test system: A. baumannii clinical isolates
Outline: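 MIC90 from CLSI broth microdilution (M07-A9) in two clinical-isolate panels. US panel (331 isolates, 2010-2012): AA139 diluted in 0.01% acetic acid/0.1% BSA. Worldwide panel (445 isolates, 2011-2013, four regions): CAMHB, with 0.002% Tween 80 added for AA139 and polymyxin B.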

[6] = test system: S. aureus; details: for BMD MIC: S. aureus ATCC 25923 MSSA, mode of 6 replicates
Outline: as §1

[7] = test system: A. baumannii; details: mode of 6 replicates
Outline: as §1

[8] = BAA2146, read-out: BMD MIC, K. pneumoniae BAA-2146, MDR, ESBL, NDM-1 pos, MHB, mode of 6 replicates

## O=C(O)c1cn(C2CC2)c2cc(N3CCNCC3)c(F)cc2c1=O [Ciprofloxacin, ciprofloxacin]
[1]; Salmonella enterica, ATCC14028 / TYPHI, read-out: BMD MIC
  MIC: 0.004 µg/mL (≈ 0.0121 µM)
[2]; ATCC13883, read-out: BMD MIC, K. pneumoniae ATCC 13883 type strain (polymyxin/colistin heteroresistant), MHB, mode of 6 replicates
  MIC: ≤ 0.25 µg/mL
[2]; [8]
  MIC: > 64 µg/mL
[3]; ATCC27853, read-out: BMD MIC, P. aeruginosa ATCC 27853 control strain, CAMHB
  MIC: ≤ 0.25 µg/mL
[3]; ATCC27853, read-out: BMD MIC, P. aeruginosa ATCC 27853 control strain, MHB
  MIC: 0.5 µg/mL (≈ 1.51 µM)
[4]; ATCC25922, read-out: BMD MIC, E. coli ATCC 25922 FDA control strain, CAMHB, mode of 6 replicates
  MIC: ≤ 0.25 µg/mL
[4]; ATCC25922, read-out: BMD MIC, E. coli ATCC 25922 FDA control strain, MHB, mode of 6 independent biological replicates
  MIC: ≤ 0.25 µg/mL
[4]; ATCC700926 / MG1655, read-out: BMD MIC
  MIC: ≤ 0.25 µg/mL
[4]; ATCC700928, read-out: BMD MIC, E. coli ATCC 700928 CFT073 UPEC, CAMHB, mode of 6 replicates
  MIC: ≤ 0.25 µg/mL
[4]; read-out: BMD MIC
  MIC: ≤ 0.25 µg/mL

## colistin
[5]; US isolates 2010-2012, isolate CID 1919446, Rep 1
  MIC: 2 µg/mL
[5]; US isolates 2010-2012, isolate CID 1919446, Rep 2
  MIC: 1 µg/mL
[5]; US isolates 2010-2012, isolate CID 1919519, Rep 1
  MIC: 1 µg/mL
[5]; US isolates 2010-2012, isolate CID 1919519, Rep 2
  MIC: 0.5 µg/mL
[5]; US isolates 2010-2012, isolate CID 1919714, Rep 1
  MIC: > 32 µg/mL
[5]; US isolates 2010-2012, isolate CID 1919714, Rep 2
  MIC: > 32 µg/mL
[5]; US isolates 2010-2012, isolate CID 1919942, Rep 1
  MIC: 2 µg/mL
[5]; US isolates 2010-2012, isolate CID 1919942, Rep 2
  MIC: 2 µg/mL
[5]; US isolates 2010-2012, isolate CID 1930670, Rep 1
  MIC: 4 µg/mL
[5]; US isolates 2010-2012, isolate CID 1930670, Rep 2
  MIC: 2 µg/mL
[5]; US isolates 2010-2012, isolate CID 1930676, Rep 1
  MIC: 4 µg/mL
[5]; US isolates 2010-2012, isolate CID 1930676, Rep 2
  MIC: 2 µg/mL
[5]; US isolates 2010-2012, isolate CID 2727597, Rep 1
  MIC: > 32 µg/mL
[5]; US isolates 2010-2012, isolate CID 2727597, Rep 2
  MIC: 32 µg/mL
[5]; US isolates 2010-2012, isolate CID 2727598, Rep 1
  MIC: 2 µg/mL
[5]; US isolates 2010-2012, isolate CID 2727598, Rep 2
  MIC: 2 µg/mL
[5]; US isolates 2010-2012, isolate CID 2727898, Rep 1
  MIC: 8 µg/mL
[5]; US isolates 2010-2012, isolate CID 2727898, Rep 2
  MIC: 8 µg/mL
[5]; US isolates 2010-2012, isolate CID 2728115, Rep 1
  MIC: 4 µg/mL
[5]; US isolates 2010-2012, isolate CID 2728115, Rep 2
  MIC: 1 µg/mL
[5]; US isolates 2010-2012, isolate CID 2728119, Rep 1
  MIC: 2 µg/mL
[5]; US isolates 2010-2012, isolate CID 2728119, Rep 2
  MIC: 2 µg/mL
[5]; US isolates 2010-2012, isolate CID 2728650, Rep 1
  MIC: 8 µg/mL
[5]; US isolates 2010-2012, isolate CID 2728650, Rep 2
  MIC: 2 µg/mL
[5]; US isolates 2010-2012, isolate CID 2728663, Rep 1
  MIC: 0.5 µg/mL
[5]; US isolates 2010-2012, isolate CID 2728663, Rep 2
  MIC: 0.5 µg/mL
[5]; US isolates 2010-2012, isolate CID 2732481, Rep 1
  MIC: > 32 µg/mL
[5]; US isolates 2010-2012, isolate CID 2732481, Rep 2
  MIC: > 32 µg/mL
[5]; US isolates 2010-2012, isolate CID 2732486, Rep 1
  MIC: 1 µg/mL
[5]; US isolates 2010-2012, isolate CID 2732486, Rep 2
  MIC: 1 µg/mL
[5]; US isolates 2010-2012, isolate CID 2762740, Rep 1
  MIC: > 32 µg/mL
[5]; US isolates 2010-2012, isolate CID 2762740, Rep 2
  MIC: 32 µg/mL
[5]; US isolates 2010-2012, isolate CID 2801947, Rep 1
  MIC: 1 µg/mL
[5]; US isolates 2010-2012, isolate CID 2801947, Rep 2
  MIC: 0.5 µg/mL
[5]; US isolates 2010-2012, isolate CID 2801949, Rep 1
  MIC: 0.25 µg/mL
[5]; US isolates 2010-2012, isolate CID 2801949, Rep 2
  MIC: 0.5 µg/mL
[5]; US isolates 2010-2012, isolate CID 2802027, Rep 1
  MIC: 0.5 µg/mL
[5]; US isolates 2010-2012, isolate CID 2802027, Rep 2
  MIC: 1 µg/mL
[5]; US isolates 2010-2012, isolate CID 2802028, Rep 1
  MIC: 0.5 µg/mL
[5]; US isolates 2010-2012, isolate CID 2802028, Rep 2
  MIC: 1 µg/mL
[5]; US isolates 2010-2012, isolate CID 2802029, Rep 1
  MIC: 0.5 µg/mL
[5]; US isolates 2010-2012, isolate CID 2802029, Rep 2
  MIC: 0.5 µg/mL
[5]; US isolates 2010-2012, isolate CID 2802031, Rep 1
  MIC: 0.5 µg/mL
[5]; US isolates 2010-2012, isolate CID 2802031, Rep 2
  MIC: 0.5 µg/mL
[5]; US isolates 2010-2012, isolate CID 2802109, Rep 2
  MIC: 0.5 µg/mL
[5]; US isolates 2010-2012, isolate CID 2802111, Rep 2
  MIC: 0.25 µg/mL
[5]; US isolates 2010-2012, isolate CID 2802187, Rep 1
  MIC: 1 µg/mL
[5]; US isolates 2010-2012, isolate CID 2802187, Rep 2
  MIC: 1 µg/mL
[1]; S. enterica Typhi ATCC 14028 control strain, CDC 6516-60, CAMHB, mode of 6 replicates
  BMD MIC: 0.03 µg/mL
[6]; MHB
  BMD MIC: >128 µg/mL
[2]; K. pneumoniae ATCC 13883 type strain (polymyxin/colistin heteroresistant), MHB, mode of 6 replicates
  BMD MIC: 0.03-4# μg mL-1
[2]; K. pneumoniae ATCC 700603 (K6), MDR, OXA-2/SHV-18, CAMHB, mode of 6 replicates
  BMD MIC: 0.125 µg/mL
[2]; K. pneumoniae ATCC 700603 (K6), MDR, OXA-2/SHV-18, MHB, mode of 6 replicates
  BMD MIC: 0.03 µg/mL
[2]; K. pneumoniae BAA-2146, MDR, ESBL, NDM-1 pos, MHB, mode of 6 replicates
  BMD MIC: 0.06 µg/mL
[2]; K. pneumoniae Greece CI 8_GR_13, XDR, KPC-2, PmxR, MHB, mode of 6 replicates
  BMD MIC: >64 µg/mL
[3]; P. aeruginosa ATCC 27853 control strain, CAMHB
  BMD MIC: 0.125 µg/mL
[3]; P. aeruginosa ATCC 27853 control strain, MHB
  BMD MIC: 0.125 µg/mL
[3]; P. aeruginosa FADDI-070, MDR, PmxR, MHB/CAMHB
  BMD MIC: 64 µg/mL
[7]; A. baumannii ATCC 19636 type strain, CAMHB
  BMD MIC: 0.06 µg/mL
[7]; A. baumannii ATCC 19636 type strain, MHB
  BMD MIC: 0.06 µg/mL
[7]; A. baumannii Greece CI, XDR, PmxR, MHB
  BMD MIC: >32 µg/mL
[4]; E. coli ATCC 25922 FDA control strain, CAMHB, mode of 6 replicates
  BMD MIC: 0.06 to 0.125 µg/mL
[4]; E. coli ATCC 25922 FDA control strain, MHB, mode of 6 independent biological replicates
  BMD MIC: 0.25 µg/mL
[4]; E. coli ATCC 700926 K12 (MG1655), CAMHB, mode of 6 replicates
  BMD MIC: ≤0.03 µg/mL
[4]; E. coli ATCC 700928 CFT073 UPEC, CAMHB, mode of 6 replicates
  BMD MIC: ≤0.25 µg/mL
[4]; E. coli CI 12-6-83 Hong Kong, mcr-1 pos, ESBL, CAMHB, mode of 6 replicates
  BMD MIC: 4 µg/mL

## COc1cc(Cc2cnc(N)nc2N)cc(OC)c1OC [Trimethoprim]
[6]; CAMHB
  BMD MIC: 2 µg/mL
[6]; Staphylococcus aureus, ATCC25923 / MSSA, read-out: BMD MIC
  MIC: 2 µg/mL (≈ 6.89 µM)
[2]; ATCC13883, read-out: BMD MIC
  MIC: 1 µg/mL (≈ 3.44 µM)
[2]; ATCC700603, read-out: BMD MIC, K. pneumoniae ATCC 700603 (K6), MDR, OXA-2/SHV-18, MHB, mode of 6 replicates
  MIC: 4 µg/mL (≈ 13.8 µM)
[2]; [8]
  MIC: > 64 µg/mL
[3]; read-out: BMD MIC, P. aeruginosa FADDI-070, MDR, PmxR, MHB/CAMHB
  MIC: 64 µg/mL (≈ 220 µM)
[7]; Acinetobacter baumannii, ATCC19636, read-out: BMD MIC, A. baumannii ATCC 19636 type strain, MHB
  MIC: 16 µg/mL (≈ 55.1 µM)
